± gives the expanded uncertainty stated by the source.
Settings: 101.33 kPa, Liquid, Vibrating tube method

mass density (278.15 K)	mass density (288.15 K)	mass density (298.15 K)	mass density (308.15 K)	mass density (318.15 K)	Structure (SMILES)
818.95 ± 0.14 kg/m3	810.32 ± 0.14 kg/m3	801.57 ± 0.14 kg/m3	792.68 ± 0.15 kg/m3	783.63 ± 0.15 kg/m3	[2H]C(C)O (stereo not given) [ethanol-1-d]
802.08 ± 0.11 kg/m3	793.6 ± 0.12 kg/m3	785.03 ± 0.12 kg/m3	776.35 ± 0.12 kg/m3	767.54 ± 0.13 kg/m3	CCO [ethanol]
